US20260308158A1, “TARGETING RNAS ASSOCIATED WITH TAUOPATHIES WITH SMALL MOLECULES” (University of Florida Research Foundation, Incorporated, priority 2023, published 2026)

Experiments:
[1] = system: WT MAPT mini-gene (exon 10 splicing); assay: 4R/3R MAPT mRNA by RT-qPCR, HeLa cells transfected with WT mini-gene; format: cell-based
Description: RNA Isolation and Real-Time Quantitative PCR (RT-qPCR). HeLa cells were treated as described in the Luciferase Reporter assay to Study Exon 10 Alternative Splicing. LAN5 cells were seeded in 12-well plates at 0.2×10^6 cells per well, treated with compound or ASO, and incubated for 48 h. Compound stocks prepared in DMSO and ASO stocks prepared in water were diluted in growth medium and added to cells. Total RNA was extracted from cells and analyzed via RT-qPCR to determine levels of 3R and 4R tau mRNA. In brief, the cells were washed with 1×DPBS and then lysed in the well using 300 μL of Lysis Buffer provided in a Quick-RNA MiniPrep kit (Zymo Research), which was used to extract total RNA per the manufacturer's protocol including the on-column DNase I digestion. The concentration of total RNA was measured by NanoDrop 2000 (Thermo Fisher Scientific). Only samples with OD260/OD280>1.8 were carried forward for analysis. Reverse transcription (RT) was carried out on 200 ng of total RNA using a qScript cDNA synthesis kit (QuantaBio) in a total volume of 10 μL according to the manufacturer's protocol. […] 4R/3R ratio were analyzed using ΔΔCt method using Equation 2: […]

htau mice = assay: Nesting activity, htau mice; format: in vivo, htau mouse; details: scale 1-5, 100 mg/kg p.o. q.o.d.
Description: Nesting Activity. From Day 1 to Day 20, mice were individually housed and nesting material from the previous day was removed. An intact 3.0 g nestlet was placed within each cage. Around 15 h later, the resulting nest was photographed for qualitative scoring, and the untorn nestlet was weighed if present. All nest images and weights were analyzed by a blinded individual and based on published criteria.^43 In brief, nesting is scored on a rating scale of 1-5 where if the nestlet is over 90% intact, it is given a nestlet score is 1 (Poor; FIG. 4C). When the nestlet is partially torn but >50% remains, the nestlet score is 2; a score of 3 is assigned when 50-90% of the nestlet is torn but spread around the cage and no identifiable nest site is found (Medium; FIG. 4C). When more than 90% of the nestlet is torn and the nest is identifiable but flat, the nestlet score is 4. When a near perfect nest is built and the wall is higher than the mouse's body, it is assigned a nestlet score of 5 (Good; FIG. 4C).

WT tau RNA duplex = assay: NMR spectral analysis (WaterLOGSY, 1D, 2D NOESY) with WT tau duplex; format: binding
Description: Preparation of NMR Samples. Two duplex-forming oligoribonucleotides r (5′-[…]-3′ (SEQ ID NO: 3))+r(5′[…]-3′ (SEQ ID NO: 4)) were designed to mimic the stem of the tau wild type (WT) hairpin. Individual RNA oligonucleotides were combined in 400 μL of NMR Buffer [10 mM KH2PO4/K2HPO4, pH 6.0 and 0.5 mM EDTA] in H2O or 100% D2O with a final RNA duplex concentration of 15 μM for WaterLOGSY experiments, […] was added to 5% (v/v) to provide a lock signal. RNA samples were annealed by heating to 95° C. for 3 min, followed by slow cooling to room temperature before being added to Shigemi NMR tubes (Shigemi, Inc.). Compound of interest was added to a final compound: RNA molar ratio of 20.0 for WaterLOGSY experiments, 2.0 for 1D ^1H H2O experiments, and 1.5 for 2D ^1NOESY experiments.
NMR Spectroscopy. NMR spectra were acquired on Bruker Avance III 600 and 700 MHz spectrometers equipped with cryoprobes. WaterLOGSY spectra were acquired at 298 K, 1D NMR spectra of samples in 95% H2O/5% D2O were acquired at 283 K, and 2D NOESY spectra in 100% D2O were acquired at 308 K. For 1D spectra of samples in 95% H2O/5% D2O, an excitation sculpting sequence during acquisition suppressed the water signal. Proton chemical shifts were referenced internally to the frequency of water. WaterLOGSY and 1D ^1H spectra were processed using Bruker TopSpin and 2D NMR spectra were processed with NMRPipe^1 and assigned with SPARKY^2.

[2] = format: physicochemical; details: not tested for this reason
WT model RNA = assay: Optical melting, WT RNA; format: binding; details: 2 at 1.5 μM
Description: Optical Melting Experiments. The thermal stabilities of WT, DDPAC, and DDPAC+I17T model RNAs were analyzed by optical melting in the presence or absence of compound 1 or 2 as previously described.^18 The RNAs (2 μM) were heated to 95° C. in 1×PBS buffer and slowly cooled to room temperature. The samples were then cooled to 15° C. in the presence of compound 1 (10 μM; 0.1% (v/v) DMSO), 2 (1.5 μM; 0.1% (v/v) DMSO) or vehicle (0.1% (v/v) DMSO) and then heated to 85° C. at a rate of 1° C. per min. Absorbance as a function of temperature was measured at 260 nm using a Beckman Coulter DU800 UV/vis spectrophotometer. Melting curves were fitted with MeltWin 3.5.^31

COc1cc(N)ncc1CCCN(C)CCCn1cnc2c3ccccc3n(C)c2c1=O [Compound 2, 3-(3-((3-(6-amino-4-methoxypyridin-3-yl)propyl)(methyl)amino)propyl)-5-methyl-3,5-dihydro-4H-pyrimido[5,4-b]indol-4-one]
PSI10 (PSI of MAPT exon 10) vs vehicle ([1]; HeLa, WT mini-gene): downregulated
inhibition at 1.5 µM ([1]; Homo sapiens, 2 at 1.5 μM, 48 h, HeLa WT mini-gene, read-out: reduction of 4R/3R ratio (mRNA)): 41 ± 3%
nesting score at Day 2 (htau mice): 2.6±1.1
nesting score at Day 20 (htau mice): 4.5±0.4
WaterLOGSY on addition of RNA (WT tau RNA duplex; 300 μM of 2, WT tau duplex, 298 K): changed the sign of the NOE, resulting in the appearance of negative peaks
RNA 1D 1H (imino proton) spectrum on addition of compound (WT tau RNA duplex; 0.5-2.0 equivalents of 2): dose dependent changes in the RNA's 1D ^1H spectrum
NOE between compound and RNA (WT tau RNA duplex; 2D NOESY, 400 ms mixing time, 35° C.): A single NOE was observed from H5/H6 of the compound to G17H1′
solubility at 200 μM [2]: insolubility
increase of Tm (WT model RNA): 0.76±0.1 °C
